Converted amounts (≈) assume the structure as drawn.
What follows are compounds tested on E. coli (assay: Bacterial susceptibility testing, MIC by broth microdilution (CLSI)). Conditions: Escherichia coli, read-out: E. coli MIC, broth microdilution, 35° C., 18-24 h.
`C[C@@H](CF)NCC(Cc1nc[nH]c(=O)c1O)c1ccc(C#Cc2ccc(CN3CC4COCC4C3)cc2)cc1F` (single isomer, unassigned) [Compound 239] was tested, and the MIC was under 1 µg/mL. In the case of `COC1CN(Cc2ccc(C#Cc3ccc(C(Cc4nc[nH]c(=O)c4O)CN4C(=O)OC[C@@H]4C)cc3)cc2)C1` (some centres unmarked) [Compound 121], the MIC is reported as 1 to 8 µg/mL (≈ 1.89 to 15.1 µM). `NC1(Cc2ccc(C#Cc3ccc(C(CO)Cc4nc[nH]c(=O)c4O)cc3)cc2)CCOCC1` (centres unmarked) [Compound 64] showed an MIC of 1 to 8 µg/mL (≈ 2.18 to 17.4 µM). With `Cn1cc(C#Cc2ccc(C(CNCCF)Cc3nc[nH]c(=O)c3O)cc2)cn1` (centres unmarked) [Compound 199] the MIC was 1 to 8 µg/mL (≈ 2.53 to 20.2 µM). With `C[C@H](O)CNC[C@H](Cc1nc[nH]c(=O)c1O)c1ccc(C#Cc2ccc(CN3CCOCC3)cc2)cc1` (single isomer, unassigned) [Compound 246] the MIC was 1 to 8 µg/mL (≈ 1.99 to 15.9 µM). For `CC(O)C(Cc1nc[nH]c(=O)c1O)c1ccc(C#Cc2ccc(CN3CCOCC3)cc2)cc1` (centres unmarked) [Compound 12], the MIC was 1 to 8 µg/mL (≈ 2.18 to 17.4 µM). In the case of `O=c1[nH]cnc(C[C@H](CO)c2ccc(C#Cc3ccc(CN(CCO)[C@H]4CCOC4)cc3)cc2)c1O` (single isomer, unassigned) [Compound 243], the MIC is reported as under 1 µg/mL. Work on `C[C@@H](CF)NCC(Cc1nc[nH]c(=O)c1O)c1ccc(C#Cc2ccc(CN[C@H]3CCOC3)cc2)cc1` (mixture of isomers) [Compound 110] yielded an MIC of under 1 µg/mL. With `N#C[C@@H]1CCN(Cc2ccc(C#Cc3ccc([C@@H](CNCC(F)F)Cc4nc[nH]c(=O)c4O)c(F)c3)cc2)C1` (single isomer, unassigned) [Compound 281] the MIC was under 1 µg/mL. `O=C(CO)N1CCN(Cc2ccc(C#Cc3ccc(C(CO)Cc4nc[nH]c(=O)c4O)cc3)cc2)CC1` (centres unmarked) [Compound 152] gave an MIC of under 1 µg/mL. For `O=c1[nH]cnc(CC(CNCCF)c2ccc(C#Cc3cnn(C4COC4)c3)cc2)c1O` (centres unmarked) [Compound 208], the MIC was 1 to 8 µg/mL (≈ 2.29 to 18.3 µM). Compound `O=C(CO)N1CCC(C#Cc2ccc(C(CO)Cc3nc[nH]c(=O)c3O)cc2)CC1` (centres unmarked) [Compound 264] has an MIC of over 32 µg/mL. In the case of `CC(C#N)NC(=O)C(Cc1nc[nH]c(=O)c1O)c1ccc(C#Cc2ccc(CN3CCOCC3)cc2)cc1` (centres unmarked) [Compound 28], the MIC is reported as 1 to 8 µg/mL (≈ 1.95 to 15.6 µM). `O=C(CO)NC1CCN(Cc2ccc(C#Cc3ccc(C(CO)Cc4nc[nH]c(=O)c4O)cc3)cc2)CC1` (centres unmarked) [Compound 240] showed an MIC of under 1 µg/mL. Work on `CS(=O)(=O)N[C@@H](Cc1nc[nH]c(=O)c1O)c1ccc(C#Cc2ccc(CN3CCNC[C@H]3CO)cc2)cc1` (single isomer, unassigned) [Compound 297] yielded an MIC of 8 to 32 µg/mL (≈ 14.9 to 59.5 µM). Compound `C[C@H](CF)NCC(Cc1nc[nH]c(=O)c1O)c1ccc(C#Cc2ccc(CN3CCOCC3)cc2)cc1F` (single isomer, unassigned) [Compound 280] has an MIC of under 1 µg/mL. `COC1CN(Cc2ccc(C#Cc3ccc(C(CNC(C)(C)CF)Cc4nc[nH]c(=O)c4O)cc3)cc2)C1` (centres unmarked) [Compound 221] was tested, and the MIC was under 1 µg/mL. Work on `COC1CN(Cc2ccc(C#Cc3ccc(C(Cc4nc[nH]c(=O)c4O)CN4CC(OC)C4)cc3)cc2)C1` (centres unmarked) [Compound 175] yielded an MIC of 1 to 8 µg/mL (≈ 1.94 to 15.5 µM). For `O=c1[nH]cnc(CC(CO)c2ccc(C#Cc3ccc(CNCC4CCOC4)cc3)cc2)c1O` (centres unmarked) [Compound 52], the MIC was 1 to 8 µg/mL (≈ 2.18 to 17.4 µM). With `O=c1[nH]cnc(C[C@H](CN2CC(F)C2)c2ccc(C#Cc3ccc(CN4CCOCC4)cc3)cc2)c1O` (single isomer, unassigned) [Compound 216] the MIC was under 1 µg/mL. Compound `COC1CN(Cc2ccc(C#Cc3ccc([C@@H](Cc4nc[nH]c(=O)c4O)CN(C)C4CC4)cc3)cc2)C1` (single isomer, unassigned) [Compound 219] has an MIC of under 1 µg/mL. `C[C@H](CF)NCC(Cc1nc[nH]c(=O)c1O)c1ccc(C#Cc2ccc(CN3CC(C#N)C3)cc2)cc1` (some centres unmarked) [Compound 83] showed an MIC of under 1 µg/mL. In the case of `COC1CN(Cc2ccc(C#Cc3ccc(C(CNC4CC4)Cc4nc[nH]c(=O)c4O)cc3)cc2)C1` (centres unmarked) [Compound 223], the MIC is reported as under 1 µg/mL. Work on `CC(CF)NC(Cc1nc[nH]c(=O)c1O)c1ccc(C#Cc2ccc(CN3CCOCC3)cc2)cc1` (centres unmarked) [Compound 141] yielded an MIC of under 1 µg/mL. `O=c1[nH]cnc(CC(CO)c2ccc(C#Cc3cnn(C4CCOCC4)c3)cc2)c1O` (centres unmarked) [Compound 202] gave an MIC of 1 to 8 µg/mL (≈ 2.38 to 19 µM). In the case of `O=c1[nH]cnc(CC(CO)c2ccc(C#Cc3ccc(CN4CCOCC4)cc3)cn2)c1O` (centres unmarked) [Compound 196], the MIC is reported as 1 to 8 µg/mL (≈ 2.24 to 17.9 µM). In the case of `NC[C@H]1CCCN1Cc1ccc(C#Cc2ccc(C(CO)Cc3nc[nH]c(=O)c3O)cc2)cc1` (mixture of isomers) [Compound 148], the MIC is reported as 1 to 8 µg/mL. In the case of `COCC(Cc1nc[nH]c(=O)c1O)c1ccc(C#Cc2ccc(CN3CCOCC3)cc2)cc1` (centres unmarked) [Compound 190], the MIC is reported as under 1 µg/mL. `CNC(Cc1nc[nH]c(=O)c1O)c1ccc(C#Cc2ccc(CN[C@@H]3CCOC3)cc2)cc1` (mixture of isomers) [Compound 265] was tested, and the MIC was under 1 µg/mL. `COCCNCC(Cc1nc[nH]c(=O)c1O)c1ccc(C#Cc2ccc(CN3CCOCC3)cc2)cc1` (centres unmarked) [Compound 164] gave an MIC of 1 to 8 µg/mL (≈ 1.99 to 15.9 µM). Work on `O=c1[nH]cnc(CC(CO)c2ccc(C#Cc3ccc(CNC4COC4)cc3)cc2)c1O` (centres unmarked) [Compound 49] yielded an MIC of under 1 µg/mL. Compound `COC1CN(Cc2ccc(C#Cc3ccc([C@@](C)(CNC4CC4)Cc4nc[nH]c(=O)c4O)cc3)cc2)C1` (single isomer, unassigned) [Compound 228] has an MIC of under 1 µg/mL. `C[C@@H](O)CNC[C@H](Cc1nc[nH]c(=O)c1O)c1ccc(C#Cc2ccc(CN3CCOCC3)cc2)cc1` (single isomer, unassigned) [Compound 247] showed an MIC of 1 to 8 µg/mL (≈ 1.99 to 15.9 µM). In the case of `COC1CN(Cc2ccc(C#Cc3ccc([C@H](Cc4nc[nH]c(=O)c4O)CN(C)C4CC4)cc3)cc2)C1` (single isomer, unassigned) [Compound 220], the MIC is reported as under 1 µg/mL. For `COC1CN(Cc2ccc(C#Cc3ccc(C(CNCC(F)CO)Cc4nc[nH]c(=O)c4O)cc3)cc2)C1` (centres unmarked) [Compound 249], the MIC was 1 to 8 µg/mL (≈ 1.92 to 15.4 µM). For `CC(F)CNCC(Cc1nc[nH]c(=O)c1O)c1ccc(C#Cc2ccc(CCN3CCOCC3)cc2)cc1` (centres unmarked) [Compound 138], the MIC was 1 to 8 µg/mL (≈ 1.93 to 15.4 µM). With `COC[C@@H](Cc1nc[nH]c(=O)c1O)c1ccc(C#Cc2ccc(CN[C@H]3CCNC3)cc2)cc1` (single isomer, unassigned) [Compound 287] the MIC was 1 to 8 µg/mL (≈ 2.18 to 17.4 µM). `CO[C@@H]1CCN(Cc2ccc(C#Cc3ccc(C(CN[C@@H](C)CF)Cc4nc[nH]c(=O)c4O)cc3)cc2)C1` (mixture of isomers) [Compound 86] was tested, and the MIC was under 1 µg/mL. In the case of `CCOC(=O)C(Cc1nc[nH]c(=O)c1O)c1ccc(C#Cc2ccc(CNC3CCOC3)cc2)cc1` (centres unmarked) [Compound 26], the MIC is reported as 1 to 8 µg/mL (≈ 2.05 to 16.4 µM). `COC[C@@H](Cc1nc[nH]c(=O)c1O)c1ccc(C#Cc2ccc(CN[C@@H]3CCNC3)cc2)cc1` (single isomer, unassigned) [Compound 288] showed an MIC of 1 to 8 µg/mL (≈ 2.18 to 17.4 µM). Work on `C[C@@H](O)CNC[C@@H](Cc1nc[nH]c(=O)c1O)c1ccc(C#Cc2ccc(CN3CCOCC3)cc2)cc1` (single isomer, unassigned) [Compound 248] yielded an MIC of under 1 µg/mL. `COC1CN(Cc2ccc(C#Cc3ccc([C@@H](Cc4nc[nH]c(=O)c4O)NS(C)(=O)=O)cc3)cc2)C1` (single isomer, unassigned) [Compound 299] was tested, and the MIC was under 1 µg/mL. `O=c1[nH]cnc(CC(CO)c2ccc(C#Cc3cnn(CC4CCOCC4)c3)cc2)c1O` (centres unmarked) [Compound 194] gave an MIC of 1 to 8 µg/mL (≈ 2.3 to 18.4 µM). For `O=c1[nH]cnc(CC(CO)c2ccc(C#Cc3ccc(CN4CCOCC4)nc3)cc2)c1O` (centres unmarked) [Compound 195], the MIC was 1 to 8 µg/mL (≈ 2.24 to 17.9 µM). For `COC1CN(Cc2ccc(C#Cc3ccc(C(CNC(CO)CF)Cc4nc[nH]c(=O)c4O)cc3)cc2)C1` (centres unmarked) [Compound 244], the MIC was 1 to 8 µg/mL (≈ 1.92 to 15.4 µM). In the case of `O=C(CO)NC[C@@H]1CCCN1Cc1ccc(C#Cc2ccc(C(CO)Cc3nc[nH]c(=O)c3O)cc2)cc1` (mixture of isomers) [Compound 158], the MIC is reported as 1 to 8 µg/mL. Compound `C[C@@H](CF)NCC(Cc1nc[nH]c(=O)c1O)c1ccc(C#Cc2ccc(C(O)CO)cc2)cc1` (single isomer, unassigned) [Compound 252] has an MIC of under 1 µg/mL. `COC1CN(Cc2ccc(C#Cc3ccc([C@](C)(CNC4CC4)Cc4nc[nH]c(=O)c4O)cc3)cc2)C1` (single isomer, unassigned) [Compound 227] gave an MIC of 1 to 8 µg/mL (≈ 2.01 to 16 µM). For `COC1CN(CC(Cc2nc[nH]c(=O)c2O)c2ccc(C#Cc3ccc(CN4CCOCC4)cc3)cc2)C1` (centres unmarked) [Compound 71], the MIC was under 1 µg/mL. Compound `O=c1[nH]cnc(CC(CO)c2ccc(C#Cc3ccc(CCN[C@H]4CCOC4)cc3)cc2)c1O` (mixture of isomers) [Compound 43] has an MIC of under 1 µg/mL. `CC(NCC(F)F)C(Cc1nc[nH]c(=O)c1O)c1ccc(C#Cc2ccc(CN3CCOCC3)cc2)cc1` (centres unmarked) [Compound 131] was tested, and the MIC was 1 to 8 µg/mL (≈ 1.91 to 15.3 µM). `C[C@@H](CF)NCC(Cc1nc[nH]c(=O)c1O)c1ccc(C#Cc2ccc(CN3CC[C@H](C#N)C3)cc2)cc1` (mixture of isomers) [Compound 92] gave an MIC of under 1 µg/mL. `O=c1[nH]cnc(CC(CO)c2ccc(C#Cc3ccc(CN[C@@H]4CCNC4)cc3)cc2)c1O` (mixture of isomers) [Compound 62] showed an MIC of 1 to 8 µg/mL. `O=c1[nH]cnc(C[C@H](CN2CC(O)C2)c2ccc(C#Cc3ccc(CN4CCOCC4)cc3)cc2)c1O` (single isomer, unassigned) [Compound 230] was tested, and the MIC was under 1 µg/mL. Compound `CS(=O)(=O)N[C@@H](Cc1nc[nH]c(=O)c1O)c1ccc(C#Cc2ccc(C3(O)CCNCC3)cc2)cc1` (single isomer, unassigned) [Compound 296] has an MIC of 8 to 32 µg/mL (≈ 15.7 to 62.9 µM). `CC(=O)NC[C@@H](Cc1nc[nH]c(=O)c1O)c1ccc(C#Cc2ccc(CN3CCOCC3)cc2)cc1` (single isomer, unassigned) [Compound 303] was tested, and the MIC was under 1 µg/mL. For `CNC(=O)C(Cc1nc[nH]c(=O)c1O)c1ccc(C#Cc2ccc(CN3CCOCC3)cc2)cc1` (centres unmarked) [Compound 23], the MIC was under 1 µg/mL.

Same assay, conditions: broth microdilution, 35° C., 18-24 h
`CC(=O)N1CC[C@H](NCC(Cc2nc[nH]c(=O)c2O)c2ccc(C#Cc3ccc(CN4CCOCC4)cc3)cc2)C1` (single isomer, unassigned) [Compound 183] was tested, and the “E. coli MIC” value was “A (A: ≤1 μg/mL)”. `C[C@@H](CO)NCC(Cc1nc[nH]c(=O)c1O)c1ccc(C#Cc2ccc(CN3CCOCC3)cc2)cc1` (single isomer, unassigned) [Compound 168] was tested, and the “E. coli MIC” value was “B (B: >1 μg/mL to ≤8.0 μg/mL)”. For `O=C(CO)NC1CCN(Cc2ccc(C#Cc3ccc(C(CO)Cc4nc[nH]c(=O)c4O)cc3)cc2)CC1` (centres unmarked) [Compound 241], the “E. coli MIC” value was “B (B: >1 μg/mL to ≤8.0 μg/mL)”. With `COC1CN(Cc2ccc(C#Cc3ccc(C(Cc4nc[nH]c(=O)c4O)CN4CC(F)C4)cc3)cc2)C1` (centres unmarked) [Compound 180] the “E. coli MIC” value was “C (C: >8.0 μg/mL to ≤32 μg/mL)”. In the case of `COC1CN(Cc2ccc(C#Cc3ccc(C(Cc4nc[nH]c(=O)c4O)CN4CC(F)C4)cc3)cc2)C1` (centres unmarked) [Compound 181], the “E. coli MIC” value is reported as “B (B: >1 μg/mL to ≤8.0 μg/mL)”.

From patent publication US11407740B2 (priority 2018, dated 2022)
